{"source": "patent US10933056B2", "about": "“3-(1H-pyrazol-4-yl)pyridine allosteric modulators of the M4 muscarinic acetylcholine receptor” (Merck Sharp & Dohme Corp., priority 2015, dated 2021)"}
{"biological_target": "T1, human M4 muscarinic acetylcholine receptor (Homo sapiens, UniProt P08173)", "T1 construct": "expressed in transfected cells; host or cells: CHO-K1", "T1 sequence (P08173 1-479)": "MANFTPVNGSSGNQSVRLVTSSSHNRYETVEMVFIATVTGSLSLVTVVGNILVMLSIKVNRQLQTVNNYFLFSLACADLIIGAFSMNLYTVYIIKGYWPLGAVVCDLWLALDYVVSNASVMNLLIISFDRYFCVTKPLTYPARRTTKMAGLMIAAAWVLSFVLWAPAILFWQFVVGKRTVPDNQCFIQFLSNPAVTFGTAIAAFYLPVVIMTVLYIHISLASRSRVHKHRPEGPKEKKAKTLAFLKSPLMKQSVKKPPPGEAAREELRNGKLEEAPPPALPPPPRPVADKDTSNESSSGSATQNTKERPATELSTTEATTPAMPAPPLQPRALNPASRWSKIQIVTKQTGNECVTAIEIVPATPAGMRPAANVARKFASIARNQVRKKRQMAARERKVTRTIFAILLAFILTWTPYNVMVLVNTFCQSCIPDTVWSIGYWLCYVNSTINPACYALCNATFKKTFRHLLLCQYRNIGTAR", "test": "human FLIPR-based M4 PAM assay (calcium mobilization in CHO-K1 cells with human M4 receptor and Gαqi5)", "type": "cell-based", "settings": "inflection point of dose response curve, acetylcholine at 20% of maximum response, FLIPR Tetra, read-out: M4 PAM IP", "experimental": "(§1) In a typical experiment the M4 muscarinic acetylcholine receptor modulating activity of the compounds of the present invention was determined in accordance with the following experimental method. CHO-K1 cells stably transfected with human M4 receptor and chimeric G-protein Gαqi5 (Coward P, et al., Analytical Biochemistry, 270:242-248 (1999)) are thawed from liquid N2 storage, resuspended in growth medium, plated in black, clear bottom 384 well plates, and incubated 16-20 hours at 37° C., 5% CO2. On the day of assay, growth medium is removed, the cells are washed 2 times with wash buffer, and cells are incubated in dye loading buffer at 37° C., 5% CO2 for ˜1 hour. Following dye loading the cell plates are placed in a FLIPR Tetra instrument and while monitoring dye fluorescence (excitation […]), 10 uL of test substance at increasing concentrations is added, and fluorescence values are recorded for 4 min. Next, 10 uL of acetylcholine is added (final concentration calculated so as to achieve 20% of the maximum acetycholine response), and the fluorescence reading is continued for 3.5 min. In some cases, a third addition of acetylcholine (final concentration calculated to achieve 70% of the maximal acetylcholine response) is performed. The resulting dose response curves are fit to a 4 parameter logistic equation and the final result is determined as the inflection point (IP) of the curve\nas §1, with “CHO-K1” for “In a typical experiment the M4 muscarinic acetylcholine receptor modulating activity of the compounds of the present invention was determined in accordance with the following experimental method. CHO-K1”, “Gαqi5” for “Gαqi5 (Coward P, et al., Analytical Biochemistry, 270:242-248 (1999))”, “performed.” for “performed. The resulting dose response curves are fit to a 4 parameter logistic equation and the final result is determined as the inflection point (IP) of the curve”", "units": {"EC50": "nM"}}
{"smiles": "CC1(Cn2cc(-c3cc4c(nc3-c3cnc5c(c3)C(=O)N(CC3CC3)C5)[C@H](F)CC4)cn2)CCCC1", "note": "(single isomer, unassigned) [Example 1A]", "EC50": 67}
{"smiles": "CC1(Cn2cc(-c3cc4c(nc3-c3cnc5c(c3)C(=O)N(CC3CC3)C5)[C@@H](F)CC4)cn2)CCCC1", "note": "(single isomer, unassigned) [Example 1B]", "EC50": 75}
{"smiles": "Cc1cc(-c2cnn(CC3(C)CCCC3)c2)c(-c2cnc3c(c2)C(=O)N(C)C3)nc1F", "note": "[Example 1, 3-(6-Fluoro-5-methyl-3-(1-((1-methylcyclopentyl)methyl)-1H-pyrazol-4-yl)pyridin-2-yl)-6-methyl-6,7-dihydro-5H-pyrrolo[3,4-b]pyridin-5-one]", "EC50": 39}
{"smiles": "CN1Cc2ccc(-c3nc(C#N)ccc3-c3cnn(CC4(C)CCCC4)c3)cc2C1=O", "note": "[Example 2, 6-(2-Methyl-3-oxoisoindolin-5-yl)-5-(1-((1-methylcyclopentyl)methyl)-1H-pyrazol-4-yl)picolinonitrile]", "EC50": 16}
{"smiles": "Cc1ccc(-c2cnn(CC3CCCC3)c2)c(-c2ccc3c(c2)C(=O)N(CC2CC2)C3)n1", "note": "[Example 3, 6-(3-(1-(cyclopentylmethyl)-1H-pyrazol-4-yl)-6-methylpyridin-2-yl)-2-(cyclopropylmethyl)isoindolin-1-one]", "EC50": 38}
{"smiles": "Cc1ccc(-c2cnn(CC3CCCC3)c2)c(-c2ccc3c(c2)C(=O)N(CCc2ccccc2)C3)n1", "note": "[Example 4, 6-(3-(1-(cyclopentylmethyl)-1H-pyrazol-4-yl)-6-methylpyridin-2-yl)-2-phenethylisoindolin-1-one]", "EC50": 37}
{"smiles": "Cc1ccc(-c2cnn(CC3CCCC3)c2)c(-c2ccc3c(c2)C(=O)N(CC2CCCO2)C3)n1", "note": "(stereo not shown) [Example 5, 6-(3-(1-(cyclopentylmethyl)-1H-pyrazol-4-yl)-6-methylpyridin-2-yl)-2-((tetrahydrofuran-2-yl)methyl)isoindolin-1-one]", "EC50": 20}
{"smiles": "Cc1ccc(-c2cnn(CC3CCCC3)c2)c(-c2ccc3c(c2)C(=O)N(C2CC2)C3)n1", "note": "[Example 6, 6-(3-(1-(cyclopentylmethyl)-1H-pyrazol-4-yl)-6-methylpyridin-2-yl)-2-cyclopropylisoindolin-1-one]", "EC50": 20}
{"smiles": "O=C1c2cc(-c3nccc(F)c3-c3cnn(CC4CCCC4)c3)ccc2CN1CC1CC1", "note": "[Example 7, 6-(3-(1-(cyclopentylmethyl)-1H-pyrazol-4-yl)-4-fluoropyridin-2-yl)-2-(cyclopropylmethyl)isoindolin-1-one]", "EC50": 22}
{"smiles": "O=C1c2cc(-c3ncccc3-c3cnn(CC4CCCC4)c3F)ccc2CN1CC1CC1", "note": "[Example 8, 6-(3-(1-(cyclopentylmethyl)-5-fluoro-1H-pyrazol-4-yl)pyridin-2-yl)-2-(cyclopropylmethyl)isoindolin-1-one]", "EC50": 142}
{"smiles": "Cc1ccc(-c2cnn(CC3CCCC3)c2F)c(-c2ccc3c(c2)C(=O)N(CC2CC2)C3)n1", "note": "[Example 9, 6-(3-(1-(cyclopentylmethyl)-5-fluoro-1H-pyrazol-4-yl)-6-methylpyridin-2-yl)-2-(cyclopropylmethyl)isoindolin-1-one]", "EC50": 12}
{"smiles": "CC1(Cn2cc(-c3cc4c(nc3-c3cnc5c(c3)C(=O)N(CC3CC3)C5)CCC4)cn2)CCCC1", "note": "[Example 10, 6-(cyclopropylmethyl)-3-(3-(1-((1-methylcyclopentyl)methyl)-1H-pyrazol-4-yl)-6,7-dihydro-5H-cyclopenta[b]pyridin-2-yl)-6,7-dihydro-5H-pyrrolo[3,4-b]pyridin-5-one]", "EC50": 54}
{"smiles": "CN1Cc2ccc(-c3nc(C#N)ccc3-c3cnn(CC4CCCC4)c3)cc2C1=O", "note": "[Example 11, 5-(1-(cyclopentylmethyl)-1H-pyrazol-4-yl)-6-(2-methyl-3-oxoisoindolin-5-yl)picolinonitrile]", "EC50": 11}
{"smiles": "CNC(=O)c1ccc(-c2cnn(CC3CCCC3)c2)c(-c2ccc3c(c2)C(=O)N(CC2CC2)C3)n1", "note": "[Example 12, 5-(1-(cyclopentylmethyl)-1H-pyrazol-4-yl)-6-(2-(cyclopropylmethyl)-3-oxoisoindolin-5-yl)-N-methylpicolinamide]", "EC50": 348}
{"smiles": "CNC(=O)c1ccc(-c2cnn(CC3CCCC3)c2)c(-c2ccc3c(c2)C(=O)N(C2CC2)C3)n1", "note": "[Example 13, 5-(1-(cyclopentylmethyl)-1H-pyrazol-4-yl)-6-(2-cyclopropyl-3-oxoisoindolin-5-yl)-N-methylpicolinamide]", "EC50": 613}
{"smiles": "CNC(=O)c1ccc(-c2cnn(CC3CCCC3)c2)c(-c2ccc3c(c2)C(=O)N(C)C3)n1", "note": "[Example 14, 5-(1-(cyclopentylmethyl)-1H-pyrazol-4-yl)-N-methyl-6-(2-methyl-3-oxoisoindolin-5-yl)picolinamide]", "EC50": 687}
{"smiles": "NC(=O)c1ccc(-c2cnn(CC3CCCC3)c2)c(-c2ccc3c(c2)C(=O)N(CC2CC2)C3)n1", "note": "[Example 15, 5-(1-(cyclopentylmethyl)-1H-pyrazol-4-yl)-6-(2-(cyclopropylmethyl)-3-oxoisoindolin-5-yl)picolinamide]", "EC50": 94}
{"smiles": "NC(=O)c1ccc(-c2cnn(CC3CCCC3)c2)c(-c2ccc3c(c2)C(=O)N(C2CC2)C3)n1", "note": "[Example 16, 5-(1-(cyclopentylmethyl)-1H-pyrazol-4-yl)-6-(2-cyclopropyl-3-oxoisoindolin-5-yl)picolinamide]", "EC50": 297}
{"smiles": "CN1Cc2ccc(-c3nc(C(N)=O)ccc3-c3cnn(CC4CCCC4)c3)cc2C1=O", "note": "[Example 17, 5-(1-(cyclopentylmethyl)-1H-pyrazol-4-yl)-6-(2-methyl-3-oxoisoindolin-5-yl)picolinamide]", "EC50": 278}
{"smiles": "N#Cc1ccc(-c2cnn(CC3CCCC3)c2)c(-c2ccc3c(c2)C(=O)N(CC2CC2)C3)n1", "note": "[Example 18, 5-(1-(cyclopentylmethyl)-1H-pyrazol-4-yl)-6-(2-(cyclopropylmethyl)-3-oxoisoindolin-5-yl)picolinonitrile]", "EC50": 8}
{"smiles": "N#Cc1ccc(-c2cnn(CC3CCCC3)c2)c(-c2ccc3c(c2)C(=O)N(C2CC2)C3)n1", "note": "[Example 19, 5-(1-(cyclopentylmethyl)-1H-pyrazol-4-yl)-6-(2-cyclopropyl-3-oxoisoindolin-5-yl)picolinonitrile]", "EC50": 9}
{"smiles": "N#Cc1ccc(-c2cnn(CC3CCCC3)c2)c(-c2ccc3c(c2)C(=O)NC3)n1", "note": "[Example 20, 5-(1-(cyclopentylmethyl)-1H-pyrazol-4-yl)-6-(3-oxoisoindolin-5-yl)picolinonitrile]", "EC50": 9}
{"smiles": "O=C1c2cc(-c3nc(F)ccc3-c3cnn(CC4CCCC4)c3)ccc2CN1CC1CC1", "note": "[Example 21, 6-(3-(1-(cyclopentylmethyl)-1H-pyrazol-4-yl)-6-fluoropyridin-2-yl)-2-(cyclopropylmethyl)isoindolin-1-one]", "EC50": 22}
{"smiles": "CN1Cc2ccc(-c3nc(F)ccc3-c3cnn(CC4CCCC4)c3)cc2C1=O", "note": "[Example 22, 6-(3-(1-(cyclopentylmethyl)-1H-pyrazol-4-yl)-6-fluoropyridin-2-yl)-2-methylisoindolin-1-one]", "EC50": 28}
{"smiles": "O=C1c2cc(-c3nc(F)ccc3-c3cnn(CC4CCCC4)c3)ccc2CN1C1CC1", "note": "[Example 23, 6-(3-(1-(cyclopentylmethyl)-1H-pyrazol-4-yl)-6-fluoropyridin-2-yl)-2-cyclopropylisoindolin-1-one]", "EC50": 34}
{"smiles": "CC1(Cn2cc(-c3cccnc3-c3ccc4c(c3)C(=O)NC4)cn2)CCCC1", "note": "[Example 24, 6-(3-(1-((1-methylcyclopentyl)methyl)-1H-pyrazol-4-yl)pyridin-2-yl)isoindolin-1-one]", "EC50": 20}
{"smiles": "CN1Cc2ccc(-c3ncccc3-c3cnn(CC4(C)CCCC4)c3)cc2C1=O", "note": "[Example 25, 2-methyl-6-(3-(1-((1-methylcyclopentyl)methyl)-1H-pyrazol-4-yl)pyridin-2-yl)isoindolin-1-one]", "EC50": 21}
{"smiles": "CC1(Cn2cc(-c3cccnc3-c3ccc4c(c3)C(=O)N(C3CC3)C4)cn2)CCCC1", "note": "[Example 26, 2-cyclopropyl-6-(3-(1-((1-methylcyclopentyl)methyl)-1H-pyrazol-4-yl)pyridin-2-yl)isoindolin-1-one]", "EC50": 32}
